From patent publication US12599136B2, “Substituted isophthalic acid diamides and their use as herbicides” (Bayer Aktiengesellschaft, priority 2020, dated 2026)

Key:
Assay type in all cases: in vivo
Pharbitis purpurea [1] = experiment: Pre-emergence herbicidal action against PHBPU; settings: 320 g/ha; visual score after 3 weeks vs untreated controls
In short: (§1)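 Seeds sown in sandy loam, soil-covered; compound sprayed on soil surface pre-emergence. Application: WP/EC, 600–800 l/ha, 0.2% wetting agent. Readout: visual % damage at 3 weeks.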

Pharbitis purpurea [2] = experiment: Post-emergence herbicidal action against PHBPU; settings: visual assessment about 3 weeks after treatment
In short: (§2)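 Sandy loam, greenhouse; treatment 2–3 weeks after sowing, one-leaf stage. Aqueous suspension or emulsion from WP/EC sprayed on foliage (600–800 l/ha, 0.2% wetting agent). Readout: visual % action, ~3 weeks.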

Matricaria inodora [3] = experiment: Post-emergence herbicidal action against MATIN; settings: visual assessment about 3 weeks after treatment
In short: as §2

Amaranthus retroflexus [4] = experiment: Pre-emergence herbicidal action against AMARE; settings: visual score after 3 weeks vs untreated controls
In short: as §1

Lolium rigidum [5] = experiment: Post-emergence herbicidal action against LOLRI; settings: 80 g/ha
Protocol: (§3) Seeds of monocotyledonous and dicotyledonous weed and crop plants are laid out in sandy loam soil in wood-fiber pots, covered with soil and cultivated in a greenhouse under good growth conditions. 2 to 3 weeks after sowing, the test plants are treated at the one-leaf stage. The compounds of the invention, formulated in the form of wettable powders (WP) or as emulsion concentrates (EC), are then sprayed onto the green parts of the plants in the form of an aqueous suspension or emulsion at a water application rate equivalent to 600 to 800 l/ha, with addition of 0.2% wetting agent. After the test plants have been left to stand in the greenhouse under optimal growth conditions for about 3 weeks, the action of the preparations is assessed visually in comparison to untreated controls (herbicidal action in percent (%): 100% activity=the plants have died, 0% activity=like control plants). […] The tables below illustrate, in an illustrative manner, the post-emergence herbicidal action of the compounds of the invention, the herbicidal activity being stated in percent.

Cyperus esculentus [6] = experiment: Pre-emergence herbicidal action against CYPES; settings: 320 g/ha; visual score after 3 weeks vs untreated controls
In short: as §1

Polygonum convolvulus = experiment: Post-emergence herbicidal action against POLCO; settings: 80 g/ha, visual assessment about 3 weeks after treatment
In short: as §2

Veronica persica [7] = experiment: Pre-emergence herbicidal action against VERPE; settings: 320 g/ha
In short: as §1

Avena fatua [8] = experiment: Post-emergence herbicidal action against AVEFA; settings: visual assessment about 3 weeks after treatment
In short: as §2

Hordeum murinum [9] = experiment: Post-emergence herbicidal action against HORMU
In short: as §2

Alopecurus myosuroides [10] = experiment: Post-emergence herbicidal action against ALOMY
In short: as §2

Alopecurus myosuroides [11] = experiment: Pre-emergence herbicidal action against ALOMY; settings: visual score after 3 weeks vs untreated controls
In short: as §1

Lolium rigidum [12] = experiment: Pre-emergence herbicidal action against LOLRI; settings: 320 g/ha
In short: as §1

Setaria viridis [13] = experiment: Pre-emergence herbicidal action against SETVI
In short: as §1

Echinochloa crus-galli [14] = experiment: Post-emergence herbicidal action against ECHCG; settings: visual assessment about 3 weeks after treatment
In short: as §2

Abutilon theophrasti [15] = experiment: Pre-emergence herbicidal action against ABUTH; settings: visual score after 3 weeks vs untreated controls
In short: as §1

Veronica persica [16] = experiment: Post-emergence herbicidal action against VERPE; settings: visual assessment about 3 weeks after treatment
In short: as §2

Amaranthus retroflexus [17] = experiment: Post-emergence herbicidal action against AMARE; settings: visual assessment about 3 weeks after treatment
In short: as §2

Echinochloa crus-galli [18] = experiment: Pre-emergence herbicidal action against ECHCG; settings: visual score after 3 weeks vs untreated controls
In short: as §1

Avena fatua [19] = experiment: Pre-emergence herbicidal action against AVEFA; settings: visual score after 3 weeks vs untreated controls
In short: as §1

Stellaria media [20] = experiment: Pre-emergence herbicidal action against STEME
In short: as §1

Hordeum murinum [21] = experiment: Pre-emergence herbicidal action against HORMU; settings: visual score after 3 weeks vs untreated controls
In short: as §1

Cyperus esculentus [22] = experiment: Post-emergence herbicidal action against CYPES; settings: 80 g/ha, visual assessment about 3 weeks after treatment
Protocol: as §3

Abutilon theophrasti [23] = experiment: Post-emergence herbicidal action against ABUTH
In short: as §2

Stellaria media [24] = experiment: Post-emergence herbicidal action against STEME; settings: visual assessment about 3 weeks after treatment
In short: as §2

Setaria viridis [25] = experiment: Post-emergence herbicidal action against SETVI; settings: visual assessment about 3 weeks after treatment
In short: as §2

Viola tricolor [26] = experiment: Pre-emergence herbicidal action against VIOTR
In short: as §1

Viola tricolor [27] = experiment: Post-emergence herbicidal action against VIOTR
In short: as §2

Matricaria inodora [28] = experiment: Pre-emergence herbicidal action against MATIN; settings: visual score after 3 weeks vs untreated controls
In short: as §1

CN(CC1CC1)C(=O)c1c(C(F)(F)F)ccc(C(=O)Nc2nnnn2C)c1Cl [Example 1-126]
Pre-emergence action against PHBPU (Pharbitis purpurea [1]): 80%
Post-emergence action against PHBPU in % (Pharbitis purpurea [2]; 5 g/ha): 90%
Post-emergence action against PHBPU in % (Pharbitis purpurea [2]; 20 g/ha): 90%
Post-emergence action against PHBPU in % (Pharbitis purpurea [2]; 80 g/ha): 100%
Post-emergence action against MATIN in % (Matricaria inodora [3]; 5 g/ha): 80%
Post-emergence action against MATIN in % (Matricaria inodora [3]; 20 g/ha): 90%
Post-emergence action against MATIN in % (Matricaria inodora [3]; 80 g/ha): 100%
Pre-emergence action against AMARE (Amaranthus retroflexus [4]; 20 g/ha): 80%
Pre-emergence action against AMARE (Amaranthus retroflexus [4]; 80 g/ha): 90%
Pre-emergence action against AMARE (Amaranthus retroflexus [4]; 320 g/ha): 100%
Post-emergence action against LOLRI in % (Lolium rigidum [5]): 90%
Pre-emergence action against CYPES (Cyperus esculentus [6]): 90%
Post-emergence action against POLCO in % (Polygonum convolvulus): 80%
Pre-emergence action against VERPE (Veronica persica [7]): 90%
Post-emergence action against AVEFA in % (Avena fatua [8]; 20 g/ha): 100%
Post-emergence action against AVEFA in % (Avena fatua [8]; 80 g/ha): 100%
Post-emergence action against HORMU in % (Hordeum murinum [9]; 20 g/ha): 100%
Post-emergence action against HORMU in % (Hordeum murinum [9]; 80 g/ha): 100%
Post-emergence action against ALOMY (Alopecurus myosuroides [10]; 5 g/ha): 90%
Post-emergence action against ALOMY (Alopecurus myosuroides [10]; 20 g/ha): 100%
Post-emergence action against ALOMY (Alopecurus myosuroides [10]; 80 g/ha): 100%
Pre-emergence action against ALOMY (Alopecurus myosuroides [11]; 80 g/ha): 80%
Pre-emergence action against ALOMY (Alopecurus myosuroides [11]; 320 g/ha): 90%
Pre-emergence action against LOLRI (Lolium rigidum [12]): 90%
Pre-emergence action against SETVI (Setaria viridis [13]; 80 g/ha): 90%
Pre-emergence action against SETVI (Setaria viridis [13]; 320 g/ha): 100%
Post-emergence action against ECHCG in % (Echinochloa crus-galli [14]; 5 g/ha): 80%
Post-emergence action against ECHCG in % (Echinochloa crus-galli [14]; 20 g/ha): 100%
Post-emergence action against ECHCG in % (Echinochloa crus-galli [14]; 80 g/ha): 100%
Pre-emergence action against ABUTH (Abutilon theophrasti [15]; 20 g/ha): 100%
Pre-emergence action against ABUTH (Abutilon theophrasti [15]; 80 g/ha): 100%
Pre-emergence action against ABUTH (Abutilon theophrasti [15]; Dosage column 320 g/ha (heading prints 3200 g/ha)): 100%
Post-emergence action against VERPE in % (Veronica persica [16]; 20 g/ha): 80%
Post-emergence action against VERPE in % (Veronica persica [16]; 80 g/ha): 80%
Post-emergence action against AMARE in % (Amaranthus retroflexus [17]; 5 g/ha): 100%
Post-emergence action against AMARE in % (Amaranthus retroflexus [17]; 20 g/ha): 100%
Post-emergence action against AMARE in % (Amaranthus retroflexus [17]; 80 g/ha): 100%
Pre-emergence action against ECHCG (Echinochloa crus-galli [18]; 80 g/ha): 90%
Pre-emergence action against ECHCG (Echinochloa crus-galli [18]; 320 g/ha): 100%
Pre-emergence action against AVEFA (Avena fatua [19]; 80 g/ha): 80%
Pre-emergence action against AVEFA (Avena fatua [19]; 320 g/ha): 100%
Pre-emergence action against STEME (Stellaria media [20]; 20 g/ha): 80%
Pre-emergence action against STEME (Stellaria media [20]; 320 g/ha): 90%
Pre-emergence action against HORMU (Hordeum murinum [21]; 80 g/ha): 80%
Pre-emergence action against HORMU (Hordeum murinum [21]; 320 g/ha): 100%
Post-emergence action against CYPES in % (Cyperus esculentus [22]): 80%
Post-emergence action against ABUTH (Abutilon theophrasti [23]; 5 g/ha): 100%
Post-emergence action against ABUTH (Abutilon theophrasti [23]; 20 g/ha): 100%
Post-emergence action against ABUTH (Abutilon theophrasti [23]; 80 g/ha): 100%
Post-emergence action against STEME in % (Stellaria media [24]; 5 g/ha): 100%
Post-emergence action against STEME in % (Stellaria media [24]; 20 g/ha): 100%
Post-emergence action against STEME in % (Stellaria media [24]; 80 g/ha): 100%
Post-emergence action against SETVI in % (Setaria viridis [25]; 5 g/ha): 100%
Post-emergence action against SETVI in % (Setaria viridis [25]; 20 g/ha): 100%
Post-emergence action against SETVI in % (Setaria viridis [25]; 80 g/ha): 100%
Pre-emergence action against VIOTR (Viola tricolor [26]; 80 g/ha): 100%
Pre-emergence action against VIOTR (Viola tricolor [26]; 320 g/ha): 100%
Post-emergence action against VIOTR in % (Viola tricolor [27]; 5 g/ha): 90%
Post-emergence action against VIOTR in % (Viola tricolor [27]; 20 g/ha): 100%
Post-emergence action against VIOTR in % (Viola tricolor [27]; 80 g/ha): 100%
Pre-emergence action against MATIN (Matricaria inodora [28]; 20 g/ha): 80%
Pre-emergence action against MATIN (Matricaria inodora [28]; 80 g/ha): 100%
Pre-emergence action against MATIN (Matricaria inodora [28]; 320 g/ha): 100%
